Test system: adults with biopsy-confirmed NASH
Test: MAESTRO-NASH: liver enzymes, imaging and biomarkers (MRI-PDFF, CAP, VCTE, MRE, liver and spleen volume, ELF)
Type: in vivo, human
[1] = 100 mg, wk 48, baseline ALT ≥30 U per liter
[2] = 100 mg, F1B, responder analysis
[3] = 100 mg, week 52, baseline ELF score ≥9.8
[4] = 100 mg, week 52, baseline PIIINP ≥9 ng/mL
[5] = 100 mg, week 52, baseline TIMP-I ≥240 ng/ml
[6] = 100 mg, week 52, baseline hyaluronic acid ≥50 ng/ml

CC(C)c1cc(Oc2c(Cl)cc(-n3nc(C#N)c(=O)[nH]c3=O)cc2Cl)n[nH]c1=O [Resmetirom, 2-(3,5-dichloro-4-((5-isopropyl-6-oxo-1,6-dihydropyridazin-3-yl)oxy)phenyl)-3,5-dioxo-2,3,4,5-tetrahydro-1,2,4-triazine-6-carbonitrile]
Hyaluronic acid, LS mean CFB difference from PBO (80 mg, week 52, baseline hyaluronic acid ≥50 ng/ml): 0.58 µg/L
Alanine aminotransferase level, difference from placebo (100 mg, wk 48): −26.3 percentage points
Aspartate aminotransferase level, difference from placebo (100 mg, wk 48): −25.4 percentage points
γ-Glutamyltransferase level, difference from placebo (100 mg, wk 48): −35.2 percentage points
Alanine aminotransferase level, least-squares mean percent change from baseline [1]: −33.2 ± 3.9%
Aspartate aminotransferase level, least-squares mean percent change from baseline [1]: −28.3 ± 3.9%
γ-Glutamyltransferase level, least-squares mean percent change from baseline [1]: −31.9 ± 6.3%
MRI-PDFF, difference from placebo (100 mg, wk 52): −37.9 percentage points
MRI-PDFF, least-squares mean percent change from baseline (100 mg, wk 52): −46.6 ± 2.8%
MRE ≥19% increase from BL, % of patients [2]: (20.0) %
MRE ≥19% increase from BL, no. of patients [2]: 1
MRE ≥19% reduction from BL, no. of patients [2]: 0
VCTE/LSM improving >25%, % of patients [2]: (70.0) %
VCTE/LSM improving >25%, no. of patients [2]: 7
VCTE/LSM improving ≥30%, % of patients [2]: (60.0) %
VCTE/LSM improving ≥30%, no. of patients [2]: 6
VCTE/LSM worsening ≥25%, no. of patients [2]: 0
VCTE/LSM worsening ≥30%, no. of patients [2]: 0
FibroScan VCTE/LSM, LS mean CFB (100 mg, F1B, week 52): −3.7 kPa
FibroScan VCTE/LSM, LS mean CFB difference from PBO (100 mg, F1B, week 52): −3.1 kPa
MRE, LS mean % CFB (100 mg, F1B, week 52): 2.4%
MRE, LS mean % CFB difference from PBO (100 mg, F1B, week 52): −5.1%
MRE ≥19% increase from BL, no. of patients (100 mg, F2, responder analysis): 0
MRE ≥19% reduction from BL, % of patients (100 mg, F2, responder analysis): (22.7) %
MRE ≥19% reduction from BL, no. of patients (100 mg, F2, responder analysis): 5
VCTE/LSM improving ≥25%, % of patients (100 mg, F2, responder analysis): (50.0) %
VCTE/LSM improving ≥25%, no. of patients (100 mg, F2, responder analysis): 38
VCTE/LSM improving ≥30%, % of patients (100 mg, F2, responder analysis): (40.8) %
VCTE/LSM improving ≥30%, no. of patients (100 mg, F2, responder analysis): 31
VCTE/LSM worsening ≥25%, % of patients (100 mg, F2, responder analysis): (10.5) %
VCTE/LSM worsening ≥25%, no. of patients (100 mg, F2, responder analysis): 8
VCTE/LSM worsening ≥30%, % of patients (100 mg, F2, responder analysis): (6.6) %
VCTE/LSM worsening ≥30%, no. of patients (100 mg, F2, responder analysis): 5
FibroScan VCTE/LSM, LS mean CFB (100 mg, F2, week 52): −2.4 kPa
FibroScan VCTE/LSM, LS mean CFB difference from PBO (100 mg, F2, week 52): −1.2 kPa
MRE, LS mean % CFB (100 mg, F2, week 52): 1.1%
MRE, LS mean % CFB difference from PBO (100 mg, F2, week 52): 0.99%
MRE ≥19% increase from BL, % of patients (100 mg, F3, responder analysis): (8.1) %
MRE ≥19% increase from BL, no. of patients (100 mg, F3, responder analysis): 7
MRE ≥19% reduction from BL, % of patients (100 mg, F3, responder analysis): (31.4) %
MRE ≥19% reduction from BL, no. of patients (100 mg, F3, responder analysis): 27
VCTE/LSM improving ≥25%, % of patients (100 mg, F3, responder analysis): (47.9) %
VCTE/LSM improving ≥25%, no. of patients (100 mg, F3, responder analysis): 80
VCTE/LSM improving ≥30%, % of patients (100 mg, F3, responder analysis): (38.9) %
VCTE/LSM improving ≥30%, no. of patients (100 mg, F3, responder analysis): 65
VCTE/LSM worsening ≥25%, % of patients (100 mg, F3, responder analysis): (10.8) %
VCTE/LSM worsening ≥25%, no. of patients (100 mg, F3, responder analysis): 18
VCTE/LSM worsening ≥30%, % of patients (100 mg, F3, responder analysis): (10.2) %
VCTE/LSM worsening ≥30%, no. of patients (100 mg, F3, responder analysis): 17
FibroScan VCTE/LSM, LS mean CFB (100 mg, F3, week 52): −3.2 kPa
FibroScan VCTE/LSM, LS mean CFB difference from PBO (100 mg, F3, week 52): −2.1 kPa
MRE, LS mean % CFB (100 mg, F3, week 52): 5.2%
MRE, LS mean % CFB difference from PBO (100 mg, F3, week 52): −4.8%
Liver volume, LS mean % CFB (100 mg, week 16): -21.4%
Liver volume, LS mean % CFB difference from PBO (100 mg, week 16): −21.1%
MRI-PDFF % fat fraction, LS mean % CFB (100 mg, week 16): 42.1%
MRI-PDFF % fat fraction, LS mean % CFB difference from PBO (100 mg, week 16): −35.7%
Spleen volume, LS mean % CFB (100 mg, week 16): 3.6%
Spleen volume, LS mean % CFB difference from PBO (100 mg, week 16): −5.0%
ALT, LS mean % CFB (100 mg, week 48): −33.2%
ALT, LS mean % CFB difference from PBO (100 mg, week 48): −26.3%
ALT, LS mean CFB (100 mg, week 48): 24.8 U/L
AST, LS mean % CFB (100 mg, week 48): 28.3%
AST, LS mean % CFB difference from PBO (100 mg, week 48): −25.4%
AST, LS mean CFB (100 mg, week 48): 15.8 U/L
GGT, LS mean % CFB (100 mg, week 48): -31.9%
GGT, LS mean % CFB difference from PBO (100 mg, week 48): −35.2%
GGT, LS mean CFB (100 mg, week 48): -32.7 U/L
Adiponectin, LS mean CFB (100 mg, week 52): 1.1 µg/mL
Adiponectin, LS mean CFB difference from PBO (100 mg, week 52): 1.3 µg/mL
CK-18, LS mean CFB (100 mg, week 52): -310 U/L
CK-18, LS mean CFB difference from PBO (100 mg, week 52): −165.7 U/L
FibroScan CAP, LS mean CFB (100 mg, week 52): −41.3 dB/m
FibroScan CAP, LS mean CFB difference from PBO (100 mg, week 52): −26.9 dB/m
Liver volume, LS mean % CFB (100 mg, week 52): -25.8%
Liver volume, LS mean % CFB difference from PBO (100 mg, week 52): 24.8%
MRI-PDFF % fat fraction, LS mean % CFB (100 mg, week 52): 46.6%
MRI-PDFF % fat fraction, LS mean % CFB difference from PBO (100 mg, week 52): −37.9%
Spleen volume, LS mean % CFB (100 mg, week 52): −6.1%
Spleen volume, LS mean % CFB difference from PBO (100 mg, week 52): −9.3%
Enhanced liver fibrosis score, LS mean CFB [3]: −0.35
Enhanced liver fibrosis score, LS mean CFB difference from PBO [3]: −0.24
PIIINP, LS mean % CFB [4]: -10.3%
PIIINP, LS mean % CFB difference from PBO [4]: −9.3%
PIIINP, LS mean CFB [4]: -2.1 ng/mL
PIIINP, LS mean CFB difference from PBO [4]: -1.4 ng/mL
TIMP-I, LS mean % CFB [5]: −10.1%
TIMP-I, LS mean % CFB difference from PBO [5]: −6.5%
TIMP-I, LS mean CFB [5]: -35.7 ng/mL
TIMP-I, LS mean CFB difference from PBO [5]: -22.3 ng/mL
Hyaluronic acid, LS mean % CFB [6]: 11.8%
Hyaluronic acid, LS mean % CFB difference from PBO [6]: −13.0%
Hyaluronic acid, LS mean CFB [6]: -2.9 µg/L
Hyaluronic acid, LS mean CFB difference from PBO [6]: -3.5 µg/L

Reference: patent US12377104B1, “Methods for treating a fatty liver disease” (Madrigal Pharmaceuticals, Inc., priority 2024, dated 2025)
